Data published in patent US4987129A, “Cephalosporin derivatives” (priority 1987, dated 1991).
In brackets after ≈: the same amount, converted by molar mass. Counter-ions that a name gives are not always drawn. Like-named read-outs stand apart in the source and are kept apart here. Values belong to the molecule of their own block, whether it stands above or below them.

Tests used:
[1] = tested on: Staphylococcus aureus Smith; test: minimum inhibitory concentration (MIC), standard method of Japan Society of Chemotherapy; format: cell-based; details: Tables 2A, 2B
Procedure: (§1) The minimum inhibitory concentration (MIC) of the compounds obtained in the above Examples were measured according to the standard method of Japan Society of Chemotherapy.

[2] = tested on: Citrobacter freundii 1R523; test: minimum inhibitory concentration (MIC); format: cell-based
Procedure: as §1

[3] = tested on: Citrobacter freundii 1R524; test: minimum inhibitory concentration (MIC); format: cell-based
Procedure: as §1

[4] = tested on: Citrobacter freundii 1R526; test: minimum inhibitory concentration (MIC); format: cell-based
Procedure: as §1

[5] = tested on: Citrobacter freundii 1R527; test: minimum inhibitory concentration (MIC); format: cell-based
Procedure: as §1

[6] = tested on: Citrobacter freundii 1U589; test: minimum inhibitory concentration (MIC); format: cell-based
Procedure: as §1

[7] = tested on: Citrobacter freundii 1U592; test: minimum inhibitory concentration (MIC); format: cell-based
Procedure: as §1

[8] = tested on: Citrobacter freundii 5D60-1; test: minimum inhibitory concentration (MIC); format: cell-based
Procedure: as §1

[9] = tested on: Citrobacter freundii GM7391; test: minimum inhibitory concentration (MIC); format: cell-based
Procedure: as §1

[10] = tested on: Citrobacter freundii GN7391; test: minimum inhibitory concentration (MIC); format: cell-based
Procedure: as §1

[11] = tested on: Enterobacter cloacae 908RN; test: minimum inhibitory concentration (MIC); format: cell-based; details: Enterobacter cloacae 908RN
Procedure: as §1

[12] = tested on: Enterobacter cloacae GN7471; test: minimum inhibitory concentration (MIC); format: cell-based
Procedure: as §1

[13] = tested on: Enterobacter cloacae IV25; test: minimum inhibitory concentration (MIC); format: cell-based
Procedure: as §1

Escherichia coli GN5482 = test: minimum inhibitory concentration (MIC); format: cell-based; details: Tables 2A, 2B
Procedure: as §1

Escherichia coli ML4704 = test: minimum inhibitory concentration (MIC); format: cell-based; details: Escherichia coli ML4704; Tables 2A, 2B; read-out: MIC
Procedure: as §1

[14] = tested on: Klebsiella pneumoniae 4at521; test: minimum inhibitory concentration (MIC); format: cell-based; details: Tables 2A, 2B
Procedure: as §1

Proteus vulgris GN7919 = test: minimum inhibitory concentration (MIC); format: cell-based
Procedure: as §1

[15] = tested on: Pseudomonas aeruginosa 4au542; test: minimum inhibitory concentration (MIC); format: cell-based; details: Tables 2A, 2B
Procedure: as §1

[16] = tested on: Pseudomonas aeruginosa 5D58-1; test: minimum inhibitory concentration (MIC); format: cell-based; details: 5D581, Tables 2A, 2B
Procedure: as §1

[17] = tested on: Pseudomonas aeruginosa GN10362; test: minimum inhibitory concentration (MIC); format: cell-based; details: Tables 2A, 2B
Procedure: as §1

[18] = tested on: Pseudomonas cepacia OF189; test: minimum inhibitory concentration (MIC); format: cell-based; details: Burkholderia cepacia, Tables 2A, 2B
Procedure: as §1

[19] = tested on: Pseudomonas maltophilia OF247; test: minimum inhibitory concentration (MIC); format: cell-based; details: Stenotrophomonas maltophilia, Tables 2A, 2B
Procedure: as §1

[20] = tested on: Serratia marcescens GN10857; test: minimum inhibitory concentration (MIC); format: cell-based; details: Tables 2A, 2B
Procedure: as §1

in vivo = test: in vivo; parameters: species or system cynomolgus monkeys; details: cynomolgus monkey, 20 mg/kg
Procedure: 20 mg/kg of compound obtained in the above Example 18 was administered parenterally to cynomolgus monkeys and the half-life in blood was measured.
The concentration of the compound was measured according to HPLC method. Novapack C18 or Microbondapack C18 (both trade name, produced by Waters Co.) was used for analysis. Further, cefpiramide was used as a control drug.

[21] = among existing cephalosporins; known; cited from earlier work
[22] = tested on: Enterobacter cloacae 5D52-2; test: minimum inhibitory concentration (MIC); format: cell-based; details: 5D522
Procedure: as §1

[23] = tested on: Enterobacter cloacae 5D83-2; test: minimum inhibitory concentration (MIC); format: cell-based; details: 5D832
Procedure: as §1

[24] = tested on: Enterobacter cloacae IY247; test: minimum inhibitory concentration (MIC); format: cell-based
Procedure: as §1

[25] = tested on: Staphylococcus aureus IAA498; test: minimum inhibitory concentration (MIC); format: cell-based; details: Tables 2A, 2B
Procedure: as §1

SMILES: CC(C)(O/N=C(\C(=O)N[C@@H]1C(=O)N2C(C(=O)[O-])=C(C[n+]3ccccc3)CS[C@H]12)c1csc(N)n1)C(=O)O [CAZ, ceftazidime, reference compound]
MIC [1]: 6.25 µg/mL (≈ 11.4 µM)
MIC [2]: 25 µg/mL (≈ 45.7 µM)
MIC [3]: 25 µg/mL (≈ 45.7 µM)
MIC [4]: 25 µg/mL (≈ 45.7 µM)
MIC [5]: 25 µg/mL (≈ 45.7 µM)
MIC [6]: 100 µg/mL (≈ 183 µM)
MIC [7]: 100 µg/mL (≈ 183 µM)
MIC ([8]; 5D601): > 100 µg/mL
MIC [9]: > 100 µg/mL
MIC ([10]; Citrobacter freundii, GN7391): > 100 µg/mL
MIC ([11]; Table 3, clinical isolates resistant to ceftazidime): > 100 µg/mL
MIC ([11]; Tables 2A, 2B): 100 µg/mL (≈ 183 µM)
MIC ([12]; Enterobacter cloacae, GN7471): 3.13 µg/mL (≈ 5.73 µM)
MIC [13]: 50 µg/mL (≈ 91.5 µM)
MIC (Escherichia coli GN5482): 1.56 µg/mL (≈ 2.85 µM)
MIC (Escherichia coli ML4704): 0.05 µg/mL (≈ 0.0915 µM)
MIC [14]: 0.1 µg/mL (≈ 0.183 µM)
MIC (Proteus vulgris GN7919): 1.56 µg/mL (≈ 2.85 µM)
MIC [15]: 3.13 µg/mL (≈ 5.73 µM)
MIC [16]: 1.56 µg/mL (≈ 2.85 µM)
MIC [17]: 1.56 µg/mL (≈ 2.85 µM)
MIC [18]: 6.25 µg/mL (≈ 11.4 µM)
MIC [19]: 3.13 µg/mL (≈ 5.73 µM)
MIC [20]: 3.13 µg/mL (≈ 5.73 µM)

half-life (in vivo): 2.5 h
SMILES: Cc1cc(O)c(C(=O)N[C@@H](C(=O)N[C@@H]2C(=O)N3C(C(=O)O)=C(CSc4nnnn4C)CS[C@H]23)c2ccc(O)cc2)cn1 [Cefpiramide, cefpiramide, reference compound]
half-life in blood [21]: long half-life in blood

half-life (in vivo): 2.6 h
MIC [1]: 1.56 µg/mL
MIC ([2]; read-out: MIC): 0.78 µg/mL
MIC ([3]; read-out: MIC): 0.39 µg/mL
MIC ([4]; read-out: MIC): 0.39 µg/mL
MIC ([5]; read-out: MIC): 0.2 µg/mL
MIC ([6]; read-out: MIC): 1.56 µg/mL
MIC ([7]; read-out: MIC): 25 µg/mL
MIC ([8]; 5D601, read-out: MIC): 1.56 µg/mL
MIC ([9]; read-out: MIC): 6.25 µg/mL
MIC ([10]; Citrobacter freundii GN7391, Tables 2A, 2B, read-out: MIC): 12.5 µg/mL
MIC [22]: 0.39 µg/mL
MIC [23]: 0.78 µg/mL
MIC ([11]; Table 3, clinical isolates resistant to ceftazidime, read-out: MIC): 12.5 µg/mL
MIC ([11]; Tables 2A, 2B, read-out: MIC): 6.25 µg/mL
MIC ([12]; Enterobacter cloacae GN7471, Tables 2A, 2B, read-out: MIC): 6.25 µg/mL
MIC ([13]; read-out: MIC): 1.56 µg/mL
MIC [24]: 6.25 µg/mL
MIC (Escherichia coli GN5482): 0.025 µg/mL
MIC (Escherichia coli ML4704): 0.012 µg/mL
MIC [14]: 0.012 µg/mL
MIC (Proteus vulgris GN7919; Proteus vulgris GN7919, Tables 2A, 2B, read-out: MIC): 1.56 µg/mL
MIC [15]: 0.2 µg/mL
MIC [16]: 0.05 µg/mL
MIC [17]: 0.05 µg/mL
MIC [18]: 0.025 µg/mL
MIC [19]: 0.39 µg/mL
MIC [20]: 0.78 µg/mL
MIC [25]: 6.25 µg/mL
SMILES: Cc1cc(SCC2=C(C(=O)O)N3C(=O)C(NC(=O)C(=NOC(C)(C)C(=O)NNC(=O)c4ccc(O)c(O)c4)c4csc(N)n4)C3SC2)n2nc(CO)nc2n1 (stereo not shown) [Example 18, 7-{2-[2-amino-1,3-thiazol-4-yl]-2-[1-(3-(3,4-dihydroxybenzoyl)carbazoyl)-1-methylethoxyimino]acetamide}-3-[(2-hydroxymethyl-5-methyl-s-triazolo[1,5-a]pyrimidin-7-yl)thiomethyl]-3-cephem-4-carboxylic acid.sodium salt]
